Data on eight compounds can be found in ChEMBL document CHEMBL5465560, “Selectivity Literature for EUbOPEN Chemogenomic Library” (2024).

The target of experiment [1] is BDNF/NT-3 growth factors receptor (Homo sapiens) (UniProt Q16620). The experiment can be described thus: Selectivity interaction (SelectScreen Kinase Profiling (Thermo Fisher Scientific)) EUB0001558a NTRK2. The settings on record: at 1 µM.
Experiment [2] concerns the target Death-associated protein kinase 1 (Homo sapiens, UniProt P53355). The experiment can be described thus: Selectivity interaction (KinomeScan (DiscoverX)) EUB0001049a DAPK1. The settings on record: at 1 µM.
Experiment [3] concerns the target T1, Serine/threonine-protein kinase RIO3 (Homo sapiens) (UniProt O14730).
T1 sequence (whole entry): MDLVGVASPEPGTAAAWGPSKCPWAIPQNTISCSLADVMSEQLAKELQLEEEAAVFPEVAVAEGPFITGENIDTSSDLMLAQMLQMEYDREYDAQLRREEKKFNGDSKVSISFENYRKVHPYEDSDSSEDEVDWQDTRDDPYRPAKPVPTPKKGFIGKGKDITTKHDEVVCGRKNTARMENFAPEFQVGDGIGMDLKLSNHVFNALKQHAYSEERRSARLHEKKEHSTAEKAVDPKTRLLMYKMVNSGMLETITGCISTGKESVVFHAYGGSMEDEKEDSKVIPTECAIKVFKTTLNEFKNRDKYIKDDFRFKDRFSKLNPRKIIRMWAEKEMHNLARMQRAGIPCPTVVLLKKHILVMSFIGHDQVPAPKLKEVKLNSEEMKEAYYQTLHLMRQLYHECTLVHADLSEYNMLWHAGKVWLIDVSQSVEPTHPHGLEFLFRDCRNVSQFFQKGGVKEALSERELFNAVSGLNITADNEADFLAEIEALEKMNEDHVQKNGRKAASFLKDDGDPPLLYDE
Kind of experiment: Selectivity interaction (KinomeScan (DiscoverX)) EUB0000695a RIOK3. The settings on record: at 100 nM.

The target of experiment [4] is Dual specificity tyrosine-phosphorylation-regulated kinase 1A (Homo sapiens, UniProt Q13627). The experiment can be described thus: Selectivity interaction (KinomeScan (DiscoverX)) EUB0000045b DYRK1A.
In experiment [5] the target is T2, Mitogen-activated protein kinase 15 (Homo sapiens) (UniProt Q8TD08).
T2 sequence (whole entry): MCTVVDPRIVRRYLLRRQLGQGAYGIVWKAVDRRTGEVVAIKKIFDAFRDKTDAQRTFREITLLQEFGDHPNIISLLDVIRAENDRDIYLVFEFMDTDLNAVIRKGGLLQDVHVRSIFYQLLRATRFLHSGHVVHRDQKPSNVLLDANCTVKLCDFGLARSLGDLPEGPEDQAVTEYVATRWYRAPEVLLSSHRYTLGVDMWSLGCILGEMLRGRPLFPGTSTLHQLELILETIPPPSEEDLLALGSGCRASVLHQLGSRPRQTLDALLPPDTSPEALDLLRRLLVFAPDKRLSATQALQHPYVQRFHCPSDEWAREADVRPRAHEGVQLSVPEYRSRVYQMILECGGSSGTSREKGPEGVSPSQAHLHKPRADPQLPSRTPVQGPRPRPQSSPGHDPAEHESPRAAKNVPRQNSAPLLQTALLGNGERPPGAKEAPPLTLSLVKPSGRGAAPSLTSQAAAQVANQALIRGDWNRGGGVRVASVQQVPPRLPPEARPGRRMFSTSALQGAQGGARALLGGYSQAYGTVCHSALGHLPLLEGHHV
Kind of experiment: Selectivity interaction (KinomeScan (DiscoverX)) EUB0000607a MAPK15. The note with it: at 10 µM.

Experiment [6] concerns the target Platelet-derived growth factor receptor beta (Homo sapiens, UniProt P09619). Kind of experiment: Selectivity interaction (KinomeScan (DiscoverX)) EUB0000607a PDGFRB. The settings on record: at 10 µM.
Experiment [7] deals with Tyrosine-protein kinase Yes (Homo sapiens) (UniProt P07947). Kind of experiment: Selectivity interaction (KinomeScan (DiscoverX)) EUB0000229b YES1. The settings on record: at 10 µM.
Chain of Tyrosine-protein kinase Yes (Homo sapiens) (P07947 2-543 limits assumed): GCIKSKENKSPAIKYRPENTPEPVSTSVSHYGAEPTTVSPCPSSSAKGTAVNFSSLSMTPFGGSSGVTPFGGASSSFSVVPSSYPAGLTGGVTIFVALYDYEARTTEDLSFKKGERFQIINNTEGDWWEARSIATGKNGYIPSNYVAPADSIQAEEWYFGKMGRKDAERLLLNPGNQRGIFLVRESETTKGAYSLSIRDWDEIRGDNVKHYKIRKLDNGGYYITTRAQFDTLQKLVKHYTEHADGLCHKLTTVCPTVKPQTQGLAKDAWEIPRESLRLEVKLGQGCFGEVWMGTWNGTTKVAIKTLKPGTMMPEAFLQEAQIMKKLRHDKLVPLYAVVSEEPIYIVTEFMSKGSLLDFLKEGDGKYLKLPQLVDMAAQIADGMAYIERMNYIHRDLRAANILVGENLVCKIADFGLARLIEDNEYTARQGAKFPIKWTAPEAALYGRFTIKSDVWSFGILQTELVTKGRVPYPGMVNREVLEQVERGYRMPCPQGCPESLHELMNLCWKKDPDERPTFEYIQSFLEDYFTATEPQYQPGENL
The target of experiment [8] is T3, Serine/threonine-protein kinase Nek5 (Homo sapiens) (UniProt Q6P3R8).
T3 sequence (whole entry): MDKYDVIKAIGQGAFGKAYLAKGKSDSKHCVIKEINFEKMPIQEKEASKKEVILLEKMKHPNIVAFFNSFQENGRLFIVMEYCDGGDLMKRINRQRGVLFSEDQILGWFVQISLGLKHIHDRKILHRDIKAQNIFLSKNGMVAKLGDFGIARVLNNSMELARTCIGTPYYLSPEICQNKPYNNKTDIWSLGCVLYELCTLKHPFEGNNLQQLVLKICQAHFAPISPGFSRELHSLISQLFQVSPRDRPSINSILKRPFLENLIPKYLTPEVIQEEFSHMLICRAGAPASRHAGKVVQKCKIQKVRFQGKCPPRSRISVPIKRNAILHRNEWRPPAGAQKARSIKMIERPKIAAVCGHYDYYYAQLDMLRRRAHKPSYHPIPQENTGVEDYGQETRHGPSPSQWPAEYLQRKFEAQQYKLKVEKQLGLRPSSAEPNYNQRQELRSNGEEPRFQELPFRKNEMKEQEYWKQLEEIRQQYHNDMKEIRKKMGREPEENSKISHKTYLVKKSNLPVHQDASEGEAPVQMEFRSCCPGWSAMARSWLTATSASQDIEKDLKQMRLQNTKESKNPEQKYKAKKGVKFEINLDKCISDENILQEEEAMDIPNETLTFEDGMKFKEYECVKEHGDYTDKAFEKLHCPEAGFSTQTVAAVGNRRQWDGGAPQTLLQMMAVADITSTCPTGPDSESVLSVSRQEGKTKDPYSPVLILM
Kind of experiment: Selectivity interaction (KinomeScan (DiscoverX)) EUB0000595a NEK5. The note with it: at 10 µM.

Experiment [9] has as its target T4, Protein kinase C epsilon type (Homo sapiens) (UniProt Q02156).
T4 sequence (whole entry): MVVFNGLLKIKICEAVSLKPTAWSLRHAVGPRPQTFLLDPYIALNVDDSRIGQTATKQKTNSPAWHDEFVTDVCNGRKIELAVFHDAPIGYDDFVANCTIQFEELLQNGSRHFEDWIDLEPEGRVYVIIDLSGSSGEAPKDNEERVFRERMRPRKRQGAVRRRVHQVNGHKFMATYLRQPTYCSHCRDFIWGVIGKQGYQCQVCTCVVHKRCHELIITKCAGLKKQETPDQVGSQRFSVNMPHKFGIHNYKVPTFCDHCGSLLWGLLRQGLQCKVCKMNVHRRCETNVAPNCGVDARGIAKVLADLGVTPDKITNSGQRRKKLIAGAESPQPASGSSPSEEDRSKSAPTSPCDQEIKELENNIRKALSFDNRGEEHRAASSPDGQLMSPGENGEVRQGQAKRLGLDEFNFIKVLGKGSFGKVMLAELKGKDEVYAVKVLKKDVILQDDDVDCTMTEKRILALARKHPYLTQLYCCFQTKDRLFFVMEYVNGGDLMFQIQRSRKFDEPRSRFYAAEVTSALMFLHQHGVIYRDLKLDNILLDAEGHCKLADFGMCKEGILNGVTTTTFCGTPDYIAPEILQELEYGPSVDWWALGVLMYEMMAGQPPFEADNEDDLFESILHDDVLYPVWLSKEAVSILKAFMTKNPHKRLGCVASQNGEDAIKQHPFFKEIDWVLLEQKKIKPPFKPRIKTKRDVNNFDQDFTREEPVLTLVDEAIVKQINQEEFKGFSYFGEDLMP
Kind of experiment: Selectivity interaction (KinomeScan (DiscoverX)) EUB0001619a PRKCE. The note with it: at 1 µM.

Chain of Platelet-derived growth factor receptor beta (P09619 whole entry): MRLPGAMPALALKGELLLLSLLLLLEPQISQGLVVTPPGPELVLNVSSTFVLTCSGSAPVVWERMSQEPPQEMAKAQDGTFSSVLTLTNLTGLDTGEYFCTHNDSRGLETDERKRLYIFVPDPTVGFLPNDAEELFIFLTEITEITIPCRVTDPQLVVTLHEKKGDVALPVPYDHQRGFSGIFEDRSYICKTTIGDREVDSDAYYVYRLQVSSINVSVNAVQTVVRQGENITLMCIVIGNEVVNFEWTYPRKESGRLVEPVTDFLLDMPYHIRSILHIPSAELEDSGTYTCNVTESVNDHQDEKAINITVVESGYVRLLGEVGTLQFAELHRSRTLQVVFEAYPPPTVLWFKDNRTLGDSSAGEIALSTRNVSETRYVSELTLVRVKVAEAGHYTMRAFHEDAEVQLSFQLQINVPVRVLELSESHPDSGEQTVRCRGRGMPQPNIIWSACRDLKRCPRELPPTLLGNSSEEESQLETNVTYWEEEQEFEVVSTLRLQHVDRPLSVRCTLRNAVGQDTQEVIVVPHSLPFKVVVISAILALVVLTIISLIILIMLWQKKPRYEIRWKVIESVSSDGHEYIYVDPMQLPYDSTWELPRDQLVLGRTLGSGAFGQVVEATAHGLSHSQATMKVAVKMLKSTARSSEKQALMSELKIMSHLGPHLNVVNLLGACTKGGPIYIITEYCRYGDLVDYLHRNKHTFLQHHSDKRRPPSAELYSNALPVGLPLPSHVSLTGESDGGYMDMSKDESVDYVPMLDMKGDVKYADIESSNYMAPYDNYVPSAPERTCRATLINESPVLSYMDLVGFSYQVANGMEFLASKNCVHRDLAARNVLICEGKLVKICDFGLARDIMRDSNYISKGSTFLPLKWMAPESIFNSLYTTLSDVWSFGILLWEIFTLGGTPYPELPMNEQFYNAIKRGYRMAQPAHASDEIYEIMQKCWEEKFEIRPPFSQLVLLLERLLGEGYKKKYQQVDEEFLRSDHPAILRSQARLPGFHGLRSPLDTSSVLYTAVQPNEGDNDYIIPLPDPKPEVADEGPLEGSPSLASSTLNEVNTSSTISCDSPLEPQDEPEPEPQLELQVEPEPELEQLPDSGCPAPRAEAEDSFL
Chain of Death-associated protein kinase 1 (P53355 whole entry, looked up): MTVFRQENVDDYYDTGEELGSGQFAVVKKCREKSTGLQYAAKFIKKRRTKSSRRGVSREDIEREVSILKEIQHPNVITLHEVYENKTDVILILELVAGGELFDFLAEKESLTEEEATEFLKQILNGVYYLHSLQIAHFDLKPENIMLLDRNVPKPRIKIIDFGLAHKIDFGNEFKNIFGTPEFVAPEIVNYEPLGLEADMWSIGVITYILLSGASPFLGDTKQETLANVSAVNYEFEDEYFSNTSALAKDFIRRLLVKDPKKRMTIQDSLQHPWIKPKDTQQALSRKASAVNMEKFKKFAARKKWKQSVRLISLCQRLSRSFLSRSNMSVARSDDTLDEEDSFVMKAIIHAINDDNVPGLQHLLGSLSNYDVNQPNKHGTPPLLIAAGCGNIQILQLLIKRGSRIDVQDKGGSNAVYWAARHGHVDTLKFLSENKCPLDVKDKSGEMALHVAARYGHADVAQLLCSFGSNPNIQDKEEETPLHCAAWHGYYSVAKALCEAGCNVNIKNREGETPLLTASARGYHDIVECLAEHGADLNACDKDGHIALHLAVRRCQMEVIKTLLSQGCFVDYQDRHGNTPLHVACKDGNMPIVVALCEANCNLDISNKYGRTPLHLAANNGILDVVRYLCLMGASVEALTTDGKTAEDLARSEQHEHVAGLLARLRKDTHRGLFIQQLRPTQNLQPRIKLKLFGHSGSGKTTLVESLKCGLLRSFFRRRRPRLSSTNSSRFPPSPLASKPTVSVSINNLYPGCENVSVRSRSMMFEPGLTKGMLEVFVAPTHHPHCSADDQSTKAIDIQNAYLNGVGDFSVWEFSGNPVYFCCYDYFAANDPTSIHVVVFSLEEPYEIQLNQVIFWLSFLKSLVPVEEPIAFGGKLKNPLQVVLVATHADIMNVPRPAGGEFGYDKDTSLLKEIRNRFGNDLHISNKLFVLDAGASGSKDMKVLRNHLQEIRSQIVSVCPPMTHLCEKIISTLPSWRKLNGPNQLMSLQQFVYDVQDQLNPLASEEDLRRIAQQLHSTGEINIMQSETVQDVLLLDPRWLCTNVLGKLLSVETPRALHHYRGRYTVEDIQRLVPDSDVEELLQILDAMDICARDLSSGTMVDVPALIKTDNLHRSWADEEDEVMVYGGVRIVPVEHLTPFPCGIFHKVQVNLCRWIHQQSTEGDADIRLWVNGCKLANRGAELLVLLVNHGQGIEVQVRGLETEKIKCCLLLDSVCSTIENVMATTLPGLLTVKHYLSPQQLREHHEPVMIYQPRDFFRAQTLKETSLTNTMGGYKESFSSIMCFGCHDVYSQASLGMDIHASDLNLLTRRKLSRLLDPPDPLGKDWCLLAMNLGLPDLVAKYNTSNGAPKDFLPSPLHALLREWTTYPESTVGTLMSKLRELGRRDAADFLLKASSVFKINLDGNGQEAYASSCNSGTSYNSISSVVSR
Chain of BDNF/NT-3 growth factors receptor (Homo sapiens) (Q16620 32-822 limits assumed): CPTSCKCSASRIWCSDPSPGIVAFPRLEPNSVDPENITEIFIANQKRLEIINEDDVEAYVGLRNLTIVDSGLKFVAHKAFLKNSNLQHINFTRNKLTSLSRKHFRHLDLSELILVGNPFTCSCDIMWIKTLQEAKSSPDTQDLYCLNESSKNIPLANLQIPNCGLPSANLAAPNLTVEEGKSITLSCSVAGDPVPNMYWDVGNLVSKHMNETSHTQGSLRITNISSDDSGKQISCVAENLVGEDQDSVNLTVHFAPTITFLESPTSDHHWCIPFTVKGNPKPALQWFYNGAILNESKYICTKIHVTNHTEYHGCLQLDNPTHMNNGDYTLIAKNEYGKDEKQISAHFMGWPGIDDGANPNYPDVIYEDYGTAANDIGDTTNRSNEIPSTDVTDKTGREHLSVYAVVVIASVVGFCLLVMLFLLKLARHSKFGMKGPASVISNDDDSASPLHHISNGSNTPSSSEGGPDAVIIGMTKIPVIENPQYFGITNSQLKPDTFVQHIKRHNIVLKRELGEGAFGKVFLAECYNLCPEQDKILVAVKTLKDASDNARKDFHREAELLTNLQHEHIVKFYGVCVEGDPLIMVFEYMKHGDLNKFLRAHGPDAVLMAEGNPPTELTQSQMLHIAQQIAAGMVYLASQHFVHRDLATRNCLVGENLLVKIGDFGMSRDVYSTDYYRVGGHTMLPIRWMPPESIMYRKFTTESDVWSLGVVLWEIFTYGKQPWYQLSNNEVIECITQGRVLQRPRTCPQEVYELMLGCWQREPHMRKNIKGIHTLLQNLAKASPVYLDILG

As for `CC(C)(O)[C@H](F)CN1Cc2cc(NC(=O)c3cnn4cccnc34)c(N3CCOCC3)cc2C1=O`, the % of inhibition in experiment [1] was 86%.
Regarding `COc1cc(Nc2nc(C)cc(-c3cnn4nc(OC)ccc34)n2)cc(C(F)(F)F)c1`, the % of control in experiment [2] came out at 88%.
As for `Cc1cc(F)c(C(=O)Nc2cccc(-c3nncn3C(C)C)n2)cc1-n1cnc(C2CC2)c1`, the % of control in experiment [3] is 83%.
Take `C=CC(=O)Nc1cc(-n2c(=O)ccc3cnc4ccc(-c5ccc(NS(C)(=O)=O)cc5)cc4c32)ccc1C`: the % of control in experiment [4] (at 1 µM) is 100%; in experiment [4] (at 10 µM), 62%.
Consider `CNC(=O)Nc1ccc(-c2nc(N3CC4CCC(C3)O4)c3cnn(C4CCC5(CC4)OCCO5)c3n2)cc1`, for which the % of control in experiment [5] amounted to 25%; in experiment [6], 89%.
In the case of `COc1cc(N(C)c2ccnc3ccc(C(F)(F)F)cc23)cc(OC)c1OC`, the % binding in experiment [7] was 83%.
With `COCC(=O)NC/C=C/c1ccc2ncnc(Nc3ccc(Oc4ccc(C)nc4)c(C)c3)c2c1` [CP-724714], the % of control in experiment [8] was 100%.
On to `N#Cc1cccc(-c2c[nH]c3ncnc(N4CCOCC4)c23)c1`, for which the % of control in [9] was 12%.
